Assay results taken from ChEMBL document CHEMBL6127144, “Optimization of a Piperidine CD4-Mimetic Scaffold Sensitizing HIV-1 Infected Cells to Antibody-Dependent Cellular Cytotoxicity” (ACS Med Chem Lett, 2024).
Calls of active or inactive are those of the source. The rule behind the calls is not given here.

Key:
[1] = test system: Moloney murine leukemia virus; assay: Antiviral activity against Moloney murine leukemia virus infected in human TZM-bl cells assessed as inhibition of viral growth incubated for 48 hrs by luminometer based neutralization assay; type: functional, organism-based
[2] = test system: Human immunodeficiency virus 1; assay: Antiviral activity against HIV-1 CH58TF infected in human TZM-bl cells assessed as inhibition of viral growth incubated for 48 hrs by luminometer based neutralization assay; type: functional, organism-based; conditions: Human immunodeficiency virus 1, CH58TF
[3] = test system: Human immunodeficiency virus 1; assay: Antiviral activity against HIV-1 JRFL infected in human TZM-bl cells assessed as inhibition of viral growth incubated for 48 hrs by luminometer based neutralization assay; type: functional, organism-based; conditions: Human immunodeficiency virus 1, JRFL
[4] = test system: Human immunodeficiency virus 1; assay: Antiviral activity against HIV-1 AD8 infected in human TZM-bl cells assessed as inhibition of viral growth incubated for 48 hrs by luminometer based neutralization assay; type: functional, organism-based; conditions: Human immunodeficiency virus 1, AD8, TZM-bl
[5] = test system: Human immunodeficiency virus 1; assay: Antiviral activity against HIV-1 CH58TF infected in human primary CD4+ T cell co-cultured with KHYG-1 cells assessed as inhibition of viral growth at 50 uM incubated for 4 to 6 hrs in presence of HIV+ plasma by flow cytometric analysis; type: functional, organism-based; conditions: time 4-6 hrs
[6] = test system: CD4+ T cell; assay: Binding affinity to 17b Antibody in HIV-1 CH58TF infected human primary CD4+ T cell co-cultured with KHYG-1 cells assessed as antibody driven cell cytotoxicity at 50 uM incubated for 4 to 6 hrs by Alexa Fluor 647 staining based flow cytometric analysis; conditions: time 4-6 hrs
[7] = test system: CD4+ T cell; assay: Binding affinity to 17b Antibody in HIV-1 AD8 infected human primary CD4+ T cell co-cultured with KHYG-1 cells assessed as antibody driven cell cytotoxicity at 50 uM incubated for 4 to 6 hrs by Alexa Fluor 647 staining based flow cytometric analysis; conditions: time 4-6 hrs
[8] = test system: Human immunodeficiency virus 1; assay: Antiviral activity against HIV-1 AD8 infected in human primary CD4+ T cell co-cultured with KHYG-1 cells assessed as inhibition of viral growth at 50 uM incubated for 4 to 6 hrs in presence of HIV+ plasma by flow cytometric analysis; type: functional, organism-based; conditions: time 4-6 hrs
[9] = test system: CD4+ T cell; assay: Binding affinity to 17b Antibody in HIV-1 AD8 infected human primary CD4+ T cell by measuring median fluorescence intensity at 50 uM incubated for 48 hrs by Alexa Fluor 647 staining based flow cytometric analysis
[10] = test system: CD4+ T cell; assay: Binding affinity to 17b Antibody in HIV-1 JRFL infected human primary CD4+ T cell by measuring median fluorescence intensity at 50 uM incubated for 48 hrs by Alexa Fluor 647 staining based flow cytometric analysis
[11] = test system: TZM; assay: Cytotoxicity against human TZM-bl cells upto 100 uM incubated for 48 hrs by cell-titer glo luminescent assay; type: toxicity, cell-based
[12] = test system: CD4+ T cell; assay: Binding affinity to 17b Antibody in HIV-1 JRFL infected human primary CD4+ T cell co-cultured with KHYG-1 cells assessed as antibody driven cell cytotoxicity at 50 uM incubated for 4 to 6 hrs by Alexa Fluor 647 staining based flow cytometric analysis; conditions: time 4-6 hrs
[13] = test system: Human immunodeficiency virus 1; assay: Antiviral activity against HIV-1 JRFL infected in human primary CD4+ T cell co-cultured with KHYG-1 cells assessed as inhibition of viral growth at 50 uM incubated for 4 to 6 hrs in presence of HIV+ plasma by flow cytometric analysis; type: functional, organism-based; conditions: time 4-6 hrs
[14] = test system: CD4+ T cell; assay: Binding affinity to 17b Antibody in HIV-1 AD8 infected human primary CD4+ T cell at 50 uM incubated for 48 hrs by Alexa Fluor 647 staining based flow cytometric analysis
[15] = test system: CD4+ T cell; assay: Binding affinity to 17b Antibody in HIV-1 JRFL infected human primary CD4+ T cell at 50 uM incubated for 48 hrs by Alexa Fluor 647 staining based flow cytometric analysis

NCCNC(=O)N1CCC[C@H](C(=O)Nc2ccc(Cl)c(F)c2)C1
IC50 [1]: > 100 µM | IC50 [2]: 1.77 µM | IC50 [3]: > 100 µM | IC50 [4]: > 100 µM | Activity [5]: Active | Activity [6]: Active | Activity [7]: inactive | Activity [8]: inactive

O=C(Nc1ccc(Cl)c(F)c1)[C@H]1CCCN(C(=O)N2CCC[C@H]2CO)C1
Flu intensity [9]: 1.26 | Flu intensity [10]: 1.11

O=C(Nc1ccc(Cl)c(F)c1)[C@H]1CCCN(C(=O)N2CCN(CC(=O)N3CCCC3)CC2)C1
Flu intensity [9]: 1.52 | Flu intensity [10]: 1.3

C[C@@H](O)[C@H](N)C(=O)N1CCN(C(=O)N2CCC[C@H](C(=O)Nc3ccc(Cl)c(F)c3)C2)CC1
IC50 [3]: 13.7 µM | IC50 [4]: 1.55 µM | Flu intensity [9]: inactive | Flu intensity [10]: inactive

O=C(Nc1ccc(Cl)c(F)c1)[C@H]1CCCN(C(=O)N2CCOCC2)C1
Flu intensity [9]: 1.49 | Flu intensity [10]: 1.05

N=C(N)N1CCC[C@@H]1C(=O)N1CCN(C(=O)N2CCC[C@H](C(=O)Nc3ccc(Cl)c(F)c3)C2)CC1
IC50 [1]: > 100 µM | IC50 [2]: 0.14 µM | IC50 [3]: 8.28 µM | IC50 [4]: 2.92 µM | Activity [11]: Non-Toxic | Activity [5]: Active | Activity [6]: Active | Activity [12]: Active | Activity [13]: inactive | Activity [7]: Active | Activity [8]: Active

N=C(N)N1CCC[C@@H]1C(=O)N1CCN(C(=O)N2C[C@H](CO)C[C@H](C(=O)Nc3ccc(Cl)c(F)c3)C2)CC1
IC50 [4]: > 100 µM

O=C(Nc1ccc(Cl)c(F)c1)[C@H]1CCCN(C(=O)N2CCN(c3cccc(C(F)(F)F)c3)CC2)C1
Activity [14]: inactive | Activity [15]: inactive

O=C(Nc1ccc(Cl)c(F)c1)[C@H]1CCCN(C(=O)N2CCN(c3ccccc3)CC2)C1
Activity [14]: inactive | Activity [15]: inactive

N=C(N)NCC(=O)N1CCN(C(=O)N2CCC[C@H](C(=O)Nc3ccc(Cl)c(F)c3)C2)CC1
IC50 [1]: > 100 µM | IC50 [2]: 0.15 µM | IC50 [3]: 10.7 µM | IC50 [4]: 1.99 µM | Activity [11]: Non-Toxic | Activity [5]: Active | Activity [6]: Active | Activity [12]: Active | Activity [13]: inactive | Activity [7]: Active

N[C@@H](Cc1ccc(O)cc1)C(=O)N1CCN(C(=O)N2CCC[C@H](C(=O)Nc3ccc(Cl)c(F)c3)C2)CC1
IC50 [3]: 28 µM | IC50 [4]: 2.18 µM | Flu intensity [9]: 2.48 | Flu intensity [10]: 2.19

CN1CCN(C(=O)N2CCC[C@H](C(=O)Nc3ccc(Cl)c(F)c3)C2)CC1
Flu intensity [9]: 1.5 | Flu intensity [10]: 1.14

CNCc1ccc2c(c1)C[C@H](CNC(=N)N)[C@H]2NC(=O)C(=O)Nc1ccc(Cl)c(F)c1
IC50 [1]: > 100 µM | IC50 [2]: 0.07 µM | IC50 [3]: 4.6 µM | IC50 [4]: 0.95 µM | Activity [5]: Active | Activity [6]: Active

CCN1CCN(C(=O)N2CCC[C@H](C(=O)Nc3ccc(Cl)c(F)c3)C2)CC1
Flu intensity [9]: 1.23 | Flu intensity [10]: 1.36

NC(=O)C[C@H](N)C(=O)N1CCN(C(=O)N2CCC[C@H](C(=O)Nc3ccc(Cl)c(F)c3)C2)CC1
IC50 [3]: 24.6 µM | IC50 [4]: 6.21 µM | Flu intensity [9]: 2.14 | Flu intensity [10]: 1.53

O=C(Nc1ccc(Cl)c(F)c1)[C@H]1CCCN(C(=O)N(CCO)CCO)C1
Flu intensity [9]: 1.27 | Flu intensity [10]: 1.04

O=C(Nc1ccc(Cl)c(F)c1)[C@H]1CCCN(C(=O)N2CCN(c3ncccn3)CC2)C1
Activity [14]: inactive | Activity [15]: inactive

COCCN1CCN(C(=O)N2CCC[C@H](C(=O)Nc3ccc(Cl)c(F)c3)C2)CC1
Flu intensity [9]: 1.28 | Flu intensity [10]: 1.43

O=C(Nc1ccc(Cl)c(F)c1)[C@H]1CCCN(C(=O)N2CCN(c3ccccn3)CC2)C1
Activity [14]: inactive | Activity [15]: inactive

N=C(N)NCCC[C@H](N)C(=O)N1CCN(C(=O)N2CCC[C@H](C(=O)Nc3ccc(Cl)c(F)c3)C2)CC1
IC50 [1]: > 100 µM | IC50 [2]: 0.22 µM | IC50 [3]: ≥ 72.6 µM | IC50 [4]: 1.27 µM | Flu intensity [9]: 2.23 | Flu intensity [10]: 1.61 | Activity [11]: Non-Toxic | Activity [5]: Active | Activity [6]: Active | Activity [7]: Active

O=C(Nc1ccc(Cl)c(F)c1)[C@H]1CCCN(C(=O)c2ccncc2)C1
Flu intensity [9]: 1.25 | Flu intensity [10]: 0.95

O=C(Nc1ccc(Cl)c(F)c1)[C@H]1CCCN(C(=O)N2CCCCC2)C1
Flu intensity [9]: 1.19 | Flu intensity [10]: 0.96

NC(=O)[C@@H]1CCCN1C(=O)N1CCC[C@H](C(=O)Nc2ccc(Cl)c(F)c2)C1
Flu intensity [9]: 1.23 | Flu intensity [10]: 1.01

N=C(N)NCC(=O)N1CCN(C(=O)N2C[C@H](CO)C[C@H](C(=O)Nc3ccc(Cl)c(F)c3)C2)CC1
IC50 [4]: 38.6 µM

O=C(Nc1ccc(Cl)c(F)c1)[C@H]1CCCN(C(=O)c2c[nH]cn2)C1
Flu intensity [9]: 1.07 | Flu intensity [10]: 0.93

CC(=O)NCSC[C@H](N)C(=O)N1CCN(C(=O)N2CCC[C@H](C(=O)Nc3ccc(Cl)c(F)c3)C2)CC1
IC50 [3]: 40 µM | IC50 [4]: 1.86 µM | Flu intensity [9]: 1.75 | Flu intensity [10]: 1.55 | Activity [7]: Active

C[C@H](N)C(=O)N1CCN(C(=O)N2CCC[C@H](C(=O)Nc3ccc(Cl)c(F)c3)C2)CC1
IC50 [3]: 5.62 µM | IC50 [4]: 1.83 µM | Flu intensity [9]: 2.53 | Flu intensity [10]: 2.02

CN(C)CCCN1CCN(C(=O)N2CCC[C@H](C(=O)Nc3ccc(Cl)c(F)c3)C2)CC1
Flu intensity [9]: 1.39 | Flu intensity [10]: 1.42
